According to patent publication US5948786A, “Piperidinylpyrimidine derivatives” (Sumitomo Pharmaceuticals Company, Limited, priority 1996, dated 1999):

These compounds were tested on TNF α production from mouse macrophages (assay: Inhibitory activity of compound on TNF α Production from mouse macrophages (LPS-induced PEC's)). Details: Macrophage, LPS 10 μg/ml, 18 hours.
Assay type: cell-based
Protocol: BALB/c mice (female, 5-7 weeks old, Charles River Japan, Tokyo, Japan) were injected i.p. with 1 ml of 2.4% thioglycollate broth. After 4 days, the mice were sacrificed. Peritoneal exudated cells (PEC's) were collected from the peritoneal cavity by washing with minimum essential medium (MEM, Handai biseibutubyou kenkyukai, Osaka, Japan) containing 5 U/ml heparin, 1% fetal bovine serum (FBS, Filtron, Victoria, Australia) and antibiotics. The cells were washed two times with MEM, suspended with MEM containing 10% FBS (complete MEM, cMEM) and seeded into 96-well culture plates (Costar, Cambridge, Mass., USA) at 2×10^5 cells/well. The cells were incubated for 1 hour at 37° C. in a humidified 5% CO2 incubator and washed two times to remove non-adherent cells.
TNF α was induced by 10 μg/ml of LPS (E. coli O111B4, DIFCO, Detroit, Mich., USA) the cells were cultured for 18 hours at 37° C. A compound of the present invention was dissolved in DMSO and added to the culture simultaneously with LPS. The final DMSO concentration was below 0.1%. The TNF α concentration in supernatant and recombinant mouse TNF α standard (rm-TNF α, Genzyme, Mass., USA) were incubated overnight at 4° C. in a 96-well plate coated with anti-mouse TNF α monoclonal antibody (PharMingen, San Diego, Calif., USA) that previously had been blocked with 10% FBS. Each well of the plate first was incubated at room temperature with biotinylated anti-mouse TNF α polyclonal antibodies (PharMingen) for 45 minutes, then with peroxidase-conjugated streptavidin (Kirkegaard & Perry Laboratories Inc., Gaitherburg, Md., USA) for 30 minutes. After each incubation, the plate was washed 4 to 8 times with PBS containing 0.2% Tween 20. TMB (Kirkegaard & Perry Laboratories Inc.) was the peroxidase substrate used and, the absorbance of each well was quantified at 450 nm by a microplatereader (Molecular Devices Corp., CA, USA). TNF α levels in the supernatant were quantified with rm-TNF α as the standard.

Row | Structure (SMILES) | inhibition at 30 µM [%]
1 | CCCCCCCC(=O)N1CCC(c2cc(-c3ccccc3)nc(N)n2)CC1 [Example 136] | 48
2 | CCCCCCCCC(=O)N1CCC(c2cc(-c3ccccc3)nc(N)n2)CC1 [Example 137] | 67
3 | CCCCCCCCCC(=O)N1CCC(c2cc(-c3ccccc3)nc(N)n2)CC1 [Example 138] | 70
4 | COc1ccc(CC(=O)N2CCC(c3cc(-c4ccccc4)nc(N)n3)CC2)cc1 [Example 142] | 55
5 | Nc1nc(-c2ccccc2)cc(C2CCN(C(=O)Cc3ccc(Cl)cc3)CC2)n1 [Example 143] | 55
6 | Nc1nc(-c2ccccc2)cc(C2CCN(C(=O)Cc3ccc([N+](=O)[O-])cc3)CC2)n1 [Example 144] | 6
7 | CCCCCCCC(=O)N1CCC(c2cc(-c3ccc(Cl)cc3)nc(N)n2)CC1 [Example 147] | 55
8 | CCCCCCCCC(=O)N1CCC(c2cc(-c3ccc(Cl)cc3)nc(N)n2)CC1 [Example 148] | 68
9 | CCCCCCCCCC(=O)N1CCC(c2cc(-c3ccc(Cl)cc3)nc(N)n2)CC1 [Example 149] | 57
10 | COc1ccc(CC(=O)N2CCC(c3cc(-c4ccc(Cl)cc4)nc(N)n3)CC2)cc1 [Example 151] | 70
11 | Nc1nc(-c2ccc(Cl)cc2)cc(C2CCN(C(=O)Cc3ccc(Cl)cc3)CC2)n1 [Example 152] | 90
12 | Nc1nc(-c2ccc(Cl)cc2)cc(C2CCN(C(=O)Cc3ccc([N+](=O)[O-])cc3)CC2)n1 [Example 153] | 92
13 | CCCCCCCC(=O)N1CCC(c2cc(-c3ccc(OC)cc3)nc(N)n2)CC1 [Example 154] | 86
14 | CCCCCCCCC(=O)N1CCC(c2cc(-c3ccc(OC)cc3)nc(N)n2)CC1 [Example 155] | 76
15 | CCCCCCCCCC(=O)N1CCC(c2cc(-c3ccc(OC)cc3)nc(N)n2)CC1 [Example 156] | 74
16 | COc1ccc(CC(=O)N2CCC(c3cc(-c4ccc(OC)cc4)nc(N)n3)CC2)cc1 [Example 158] | 61
17 | COc1ccc(-c2cc(C3CCN(C(=O)Cc4ccc(Cl)cc4)CC3)nc(N)n2)cc1 [Example 159] | 75
18 | COc1ccc(-c2cc(C3CCN(C(=O)Cc4ccc([N+](=O)[O-])cc4)CC3)nc(N)n2)cc1 [Example 160] | 57
19 | COc1ccc(Cc2cc(C3CCN(C(C)=O)CC3)nc(N)n2)cc1 [Example 162] | 61
20 | CCC(=O)N1CCC(c2cc(Cc3ccc(OC)cc3)nc(N)n2)CC1 [Example 163] | 79
21 | CCCC(=O)N1CCC(c2cc(Cc3ccc(OC)cc3)nc(N)n2)CC1 [Example 164] | 43
22 | CCCCC(=O)N1CCC(c2cc(Cc3ccc(OC)cc3)nc(N)n2)CC1 [Example 165] | 41
23 | CCCCCC(=O)N1CCC(c2cc(Cc3ccc(OC)cc3)nc(N)n2)CC1 [Example 166] | 48

Row | Structure (SMILES) | inhibition at 30 µM [%]
24 | CCCCCCC(=O)N1CCC(c2cc(Cc3ccc(OC)cc3)nc(N)n2)CC1 [Example 167] | 52
25 | CCCCCCCC(=O)N1CCC(c2cc(Cc3ccc(OC)cc3)nc(N)n2)CC1 [Example 168] | 49
26 | CCCCCCCCC(=O)N1CCC(c2cc(Cc3ccc(OC)cc3)nc(N)n2)CC1 [Example 169] | 12
27 | CCCCCCCCCC(=O)N1CCC(c2cc(Cc3ccc(OC)cc3)nc(N)n2)CC1 [Example 170] | 11
28 | CCCCCCCCCCC(=O)N1CCC(c2cc(Cc3ccc(OC)cc3)nc(N)n2)CC1 [Example 171] | 13
29 | COc1ccc(Cc2cc(C3CCN(C(=O)C(C)(C)C)CC3)nc(N)n2)cc1 [Example 173] | 31
30 | COc1ccc(Cc2cc(C3CCN(C(=O)CCCl)CC3)nc(N)n2)cc1 [Example 174] | 54
31 | COc1ccc(Cc2cc(C3CCN(C(=O)CCBr)CC3)nc(N)n2)cc1 [Example 175] | 48
32 | COc1ccc(Cc2cc(C3CCN(C(=O)CCNC(=O)OC(C)(C)C)CC3)nc(N)n2)cc1 [Example 176, 2-amino-4-[1-(3-t-butoxycarbonylaminopropanoyl)-4-piperidinyl]-6-(4-methoxyphenylmethyl)pyrimidine] | 60
33 | COc1ccc(Cc2cc(C3CCN(C(=O)CCO)CC3)nc(N)n2)cc1 [Example 177] | 46
34 | COc1ccc(Cc2cc(C3CCN(C(=O)c4ccccc4OC)CC3)nc(N)n2)cc1 [Example 178] | 76
35 | COc1ccc(Cc2cc(C3CCN(C(=O)c4cccc(OC)c4)CC3)nc(N)n2)cc1 [Example 179] | 82
36 | COc1ccc(Cc2cc(C3CCN(C(=O)c4ccc(OC)cc4)CC3)nc(N)n2)cc1 [Example 180] | 70
37 | COc1ccc(Cc2cc(C3CCN(C(=O)c4ccccc4Cl)CC3)nc(N)n2)cc1 [Example 181] | 26
38 | COc1ccc(Cc2cc(C3CCN(C(=O)c4cccc(Cl)c4)CC3)nc(N)n2)cc1 [Example 182] | 46
39 | COc1ccc(Cc2cc(C3CCN(C(=O)c4ccc(Cl)cc4)CC3)nc(N)n2)cc1 [Example 183] | 54
40 | COc1ccc(Cc2cc(C3CCN(C(=O)c4ccccc4[N+](=O)[O-])CC3)nc(N)n2)cc1 [Example 184] | 73
41 | COc1ccc(Cc2cc(C3CCN(C(=O)c4cccc([N+](=O)[O-])c4)CC3)nc(N)n2)cc1 [Example 185] | 69
42 | COc1ccc(Cc2cc(C3CCN(C(=O)c4ccc([N+](=O)[O-])cc4)CC3)nc(N)n2)cc1 [Example 186] | 67
43 | COc1ccc(Cc2cc(C3CCN(C(=O)c4ccccn4)CC3)nc(N)n2)cc1 [Example 194] | 9
44 | COc1ccc(Cc2cc(C3CCN(C(=O)c4cccnc4)CC3)nc(N)n2)cc1 [Example 195] | 29
45 | COc1ccc(Cc2cc(C3CCN(C(=O)c4ccncc4)CC3)nc(N)n2)cc1 [Example 196] | 57
46 | COc1ccc(Cc2cc(C3CCN(C(=O)c4cccc(OC)c4OC)CC3)nc(N)n2)cc1 [Example 197] | 29

Row | Structure (SMILES) | inhibition at 30 µM [%]
47 | COc1ccc(Cc2cc(C3CCN(C(=O)c4ccc(OC)cc4OC)CC3)nc(N)n2)cc1 [Example 198] | 29
48 | COc1ccc(Cc2cc(C3CCN(C(=O)c4ccc(OC)c(OC)c4)CC3)nc(N)n2)cc1 [Example 201] | 46
49 | COc1ccc(Cc2cc(C3CCN(C(=O)c4ccc(Cl)cc4Cl)CC3)nc(N)n2)cc1 [Example 204] | 84
50 | COc1ccc(Cc2cc(C3CCN(C(=O)c4cc(Cl)ccc4Cl)CC3)nc(N)n2)cc1 [Example 205] | 51
51 | COc1ccc(Cc2cc(C3CCN(C(=O)c4ccc(Cl)c(Cl)c4)CC3)nc(N)n2)cc1 [Example 207] | 76
52 | COc1ccc(Cc2cc(C3CCN(C(=O)c4cccc5ccccc45)CC3)nc(N)n2)cc1 [Example 211] | 80
53 | COc1ccc(Cc2cc(C3CCN(C(=O)c4ccc(OC)c(OC)c4OC)CC3)nc(N)n2)cc1 [Example 213] | 43
54 | COc1ccc(Cc2cc(C3CCN(C(=O)c4c(OC)ccc(OC)c4OC)CC3)nc(N)n2)cc1 [Example 214] | 13
55 | COc1ccc(Cc2cc(C3CCN(C(=O)c4cc(OC)c(OC)c(OC)c4)CC3)nc(N)n2)cc1 [Example 217] | 44
56 | COc1ccc(Cc2cc(C3CCN(C(=O)c4cc(Cl)cc(Cl)c4Cl)CC3)nc(N)n2)cc1 [Example 218] | 55
57 | COc1ccc(Cc2cc(C3CCN(C(=O)c4c(Cl)ccc(Cl)c4Cl)CC3)nc(N)n2)cc1 [Example 219] | 75
58 | COc1ccc(Cc2cc(C3CCN(C(=O)c4c(Cl)cc(Cl)cc4Cl)CC3)nc(N)n2)cc1 [Example 220] | 75
59 | COc1ccc(Cc2cc(C3CCN(C(=O)Cc4ccccc4OC)CC3)nc(N)n2)cc1 [Example 222] | 36
60 | COc1ccc(Cc2cc(C3CCN(C(=O)Cc4cccc(OC)c4)CC3)nc(N)n2)cc1 [Example 223] | 82
61 | COc1ccc(CC(=O)N2CCC(c3cc(Cc4ccc(OC)cc4)nc(N)n3)CC2)cc1 [Example 224] | 73
62 | COc1ccc(Cc2cc(C3CCN(C(=O)Cc4ccccc4Cl)CC3)nc(N)n2)cc1 [Example 225] | 43
63 | COc1ccc(Cc2cc(C3CCN(C(=O)Cc4cccc(Cl)c4)CC3)nc(N)n2)cc1 [Example 226] | 69
64 | COc1ccc(Cc2cc(C3CCN(C(=O)Cc4ccc(Cl)cc4)CC3)nc(N)n2)cc1 [Example 227] | 63
65 | COc1ccc(Cc2cc(C3CCN(C(=O)Cc4ccc([N+](=O)[O-])cc4)CC3)nc(N)n2)cc1 [Example 233] | 54
66 | COc1ccc(Cc2cc(C3CCN(C(=O)Cc4ccc(OC)c(OC)c4)CC3)nc(N)n2)cc1 [Example 237] | 87
67 | COc1ccc(Cc2cc(C3CCN(C(=O)Cc4cc(OC)cc(OC)c4)CC3)nc(N)n2)cc1 [Example 238] | 96
